The source of these data is ChEMBL document CHEMBL1201862, “PubChem BioAssay data set” (2004).

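Method: 48-hour compound exposure of cells in 96-well plates, five concentrations, linear interpolation of endpoints. GI50 = concentration required for 50% inhibition of growth.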 Activity calls are given as the source filed them. No stated cut-off is given here; in the data, active = GI50 up to about 1.1 µM and inactive = higher. Where a SMILES comes first, the peptide text is derived from it. The star is where a group is joined. Boc = CC(C)(C)OC(=O)* A value given as a limit tells only on which side of the number the result lay.

Common to all, as to assay: DTP human tumour cell line panel, 48 h
Assay [1] relates to NCI-H226.
For assay [2], the system named is 786-0.
The subject of assay [3] is K562.
Assay [4] has as its system SK-MEL-5.
Assay [5] concerns DU-145.
Assay [6] concerns IGROV-1.
Assay [7] has as its system SK-MEL-28.
Assay [8] concerns TK-10.
In assay [9] the test system is HL-60.
In assay [10] the test system is U-251.
Assay [11] has as its system A498.
For assay [12], the system named is A549.
Assay [13] relates to CCRF-CEM.
Assay [14] deals with COLO 205.
The subject of assay [15] is SW-620.
Assay [16] concerns SK-OV-3.
The subject of assay [17] is HOP-62.
Assay [18] relates to ACHN.
The subject of assay [19] is SN12C.
In assay [20] the test system is SF-539.

With `O=S(=O)(NC(c1ccccc1)(c1cc2ccccc2[nH]1)c1cc2ccccc2n1S(=O)(=O)c1ccccc1)c1ccccc1` (stereo unspecified), the GI50 in [1], in [2], in assay [3], in assay [4], in assay [5] and in assay [6] was > 100 µM (inactive) throughout. In addition, the GI50 is > 100 µM (inactive) in assay [7]; > 100 µM (inactive) in assay [8]; > 100 µM (inactive) in assay [9]; > 100 µM (inactive) in assay [10]; > 100 µM (inactive) in assay [11]; 48.3 µM (inactive) in assay [12]. Moreover, the GI50 in assay [13] was > 100 µM (inactive); in assay [14], > 100 µM (inactive); in assay [15], > 100 µM (inactive); in assay [16], 0.292 µM (active); in assay [17], > 100 µM (inactive).
As to `CCOC(=O)CN1C(=O)c2ccc(NC(=O)C(=O)O)cc2S1(=O)=O`, the GI50 in assay [1], in [2], in assay [3], in [18], in assay [4] and in assay [5] was > 100 µM (inactive) each time. Besides, the GI50 in assay [6], in [7], in assay [19], in assay [8], in [9] and in assay [10] was > 100 µM (inactive) each time. The GI50 in assay [11], in assay [12], in assay [13], in [14], in assay [15] and in assay [16] was > 100 µM (inactive) in each case. For the same molecule, the GI50 in assay [17] is > 100 µM (inactive).
As to `c1ccc(C2(c3cc4ccccc4[nH]3)OCCO2)cc1`, the GI50 in [1] is 36.6 µM (inactive); in assay [2] it was > 100 µM (inactive); in assay [3] it was 22.2 µM (inactive); in [18], 35.9 µM (inactive); in assay [4], 23.1 µM (inactive); in [5] it was 65.3 µM (inactive). Further, the GI50 in assay [6] was 34 µM (inactive); in assay [7], 28.2 µM (inactive); in assay [19] it was 41.2 µM (inactive); in assay [8] it was > 100 µM (inactive); in assay [10] it was > 100 µM (inactive); in [11], 37.2 µM (inactive). Also, the GI50 is 39.4 µM (inactive) in [12]; 18.4 µM (inactive) in [13]; 27.9 µM (inactive) in assay [14]; 24 µM (inactive) in [15]; 85.1 µM (inactive) in [16]; > 100 µM (inactive) in [20].
As for `COC(=O)C(Cc1c[nH]c2ccccc12)NC(=O)C(Cc1c[nH]c2ccccc12)NC(=O)C(Cc1c[nH]c2ccccc12)NC(=O)C(Cc1c[nH]c2ccccc12)NC(=O)C(Cc1c[nH]c2ccccc12)NC(=O)C(Cc1c[nH]c2ccccc12)NC(=O)C(Cc1c[nH]c2ccccc12)NC(=O)C(Cc1c[nH]c2ccccc12)NC(=O)OC(C)(C)C` (stereo unspecified) (Boc-WWWWWWWW-OMe; configuration not given here), the GI50 is 49.3 µM (inactive) in assay [1]; > 100 µM (inactive) in assay [2]; 31.8 µM (inactive) in assay [3]; > 100 µM (inactive) in [18]; 24.3 µM (inactive) in [4]; 35.5 µM (inactive) in assay [5]. Besides, the GI50 in assay [6] is 19.8 µM (inactive); in assay [7] it was 33.3 µM (inactive); in assay [19] it was 72.8 µM (inactive); in assay [8], 34 µM (inactive); in assay [9], 24.8 µM (inactive); in [10], 74.6 µM (inactive). Further, the GI50 in assay [11] was 20 µM (inactive); in assay [12], 86.5 µM (inactive); in assay [13], 34.4 µM (inactive); in [15], > 100 µM (inactive); in [17], > 100 µM (inactive).
As to `COc1ccc(Nc2nc3cc(C(F)(F)F)ccc3nc2C(=O)O)cc1`, the GI50 was 15.6 µM (inactive) in assay [1]; 17.5 µM (inactive) in assay [2]; 15.2 µM (inactive) in [3]; 28.3 µM (inactive) in [18]; 16.7 µM (inactive) in [4]; 20.4 µM (inactive) in assay [5]. Further, the GI50 in assay [6] is 24 µM (inactive); in [7] it was 31.7 µM (inactive); in assay [19], 27 µM (inactive); in [8] it was 34.4 µM (inactive); in assay [9], 19.9 µM (inactive); in [10], 13 µM (inactive). The GI50 is 15.1 µM (inactive) in [11], 21.3 µM (inactive) in assay [14], 21.6 µM (inactive) in assay [15] and 14.9 µM (inactive) in assay [17].
Consider `O=c1c(C(c2ccc(O)cc2)c2c(O)oc3ccccc3c2=O)c(O)oc2ccccc12`, for which the GI50 is > 100 µM (inactive) in assay [1]; 58.2 µM (inactive) in [2]; > 100 µM (inactive) in [18]; 83.8 µM (inactive) in [4]; > 100 µM (inactive) in assay [5]; 66.2 µM (inactive) in assay [6]. The GI50 in assay [7] was 55.5 µM (inactive); in [19], 56.8 µM (inactive); in [8], > 100 µM (inactive); in assay [10], 34.9 µM (inactive); in assay [11], > 100 µM (inactive); in assay [13] it was 74.3 µM (inactive). Moreover, the figures for the GI50 in assay [14], in assay [15] and in [17] were 69.8 µM (inactive), 44.5 µM (inactive) and 96.8 µM (inactive), respectively.
Turning to `CCCSC1=N/C(=C\c2ccco2)C(=O)N1`, the GI50 in assay [1], in [2], in [18], in assay [5], in assay [6] and in assay [7] was > 100 µM (inactive) throughout. Further, the GI50 in assay [19] was > 100 µM (inactive); in assay [8], > 100 µM (inactive); in assay [10], > 100 µM (inactive); in [11], 89.7 µM (inactive); in [12] it was > 100 µM (inactive); in [14] it was > 100 µM (inactive). Also, the GI50 in assay [15], in assay [16], in assay [17] and in [20] was > 100 µM (inactive) in each case.
For `CC(=O)OCC1OC(O[C@@H]2c3c(O)c4c(c(O)c3C3=C(NN(c5ccc([N+](=O)[O-])cc5[N+](=O)[O-])[Se]3=O)[C@@]2(C)O)C(=O)c2ccccc2C4=O)C(OC(C)=O)C(OC(C)=O)C1OC(C)=O` (stereo partly specified), the GI50 was 0.31 µM (active) in assay [1]; 0.147 µM (active) in [2]; 0.118 µM (active) in [3]; 0.222 µM (active) in [18]; 0.2 µM (active) in [4]; 0.365 µM (active) in assay [5]. Also, the GI50 in assay [6] is 0.303 µM (active); in assay [7], 0.242 µM (active); in assay [19], 0.157 µM (active); in [8], 0.497 µM (active); in [10] it was 0.14 µM (active); in assay [11], 0.288 µM (active). Moreover, the GI50 in [12] is 0.314 µM (active); in assay [13], 0.0352 µM (active); in assay [14], 0.175 µM (active); in [15], 0.101 µM (active); in assay [16], 0.281 µM (active); in assay [17], 0.189 µM (active).

In general, GI50 refers to the concentration giving 50% growth inhibition.
